Data as given in ChEMBL document CHEMBL3885881, “DrugMatrix”.

Organism: Rattus norvegicus
Test: DrugMatrix - Regimen: Daily Repeat
Assay type: toxicity, organism-based, Sprague-Dawley
Design: regimen Daily Repeat, gender Male, age 6-8 weeks
Conditions: in vivo, po, route oral GAVAGE, vehicle .5 % CMC; for ABSOLUTE BASOPHIL / ABSOLUTE EOSINOPHIL / ABSOLUTE LYMPHOCYTE / ABSOLUTE MONOCYTE / ABSOLUTE SEGMENTED NEUTROPHIL / BASOPHIL / EOSINOPHIL / ERYTHROCYTE COUNT / HEMATOCRIT / HEMOGLOBIN / LEUKOCYTE COUNT / LYMPHOCYTE / MEAN CORPUSCULAR HEMOGLOBIN / MEAN CORPUSCULAR HEMOGLOBIN CONCENTRATION / MEAN CORPUSCULAR VOLUME / MONOCYTE / NEUTROPHIL / NUCLEATED RED BLOOD CELLS / PLATELET COUNT: tissue Blood; for ALANINE AMINOTRANSFERASE / ALBUMIN / ALKALINE PHOSPHATASE / ASPARTATE AMINOTRANSFERASE / BLOOD UREA NITROGEN / CARBON DIOXIDE / CHLORIDE / CHOLESTEROL / CREATINE PHOSPHOKINASE / CREATININE / GLUCOSE / LACTATE DEHYDROGENASE / LIPASE / PHOSPHORUS / POTASSIUM / SODIUM / TOTAL BILIRUBIN / TOTAL PROTEIN / URIC ACID: tissue Plasma
[1] = 31 mg/kg, 72 h, dose level Low, time 3 day
[2] = 31 mg/kg, 120 h, dose level Low, time 5 day
[3] = 76 mg/kg, 72 h, dose level High, time 3 day
[4] = 76 mg/kg, 120 h, dose level High, time 5 day

O=C1CN(/N=C/c2ccc([N+](=O)[O-])o2)C(=O)N1 [NITROFURANTOIN]
ABSOLUTE BASOPHIL [1]: 0 CELLS/uL
ABSOLUTE EOSINOPHIL [1]: 106.67 CELLS/uL
ABSOLUTE LYMPHOCYTE [1]: 13250.33 CELLS/uL
ABSOLUTE MONOCYTE [1]: 160 CELLS/uL
ABSOLUTE SEGMENTED NEUTROPHIL [1]: 1583 CELLS/uL
BASOPHIL [1]: 0%
EOSINOPHIL [1]: 0.67%
ERYTHROCYTE COUNT [1]: 5.65 x10E6/uL
HEMATOCRIT [1]: 35.43%
HEMOGLOBIN [1]: 13.47 G/DL
LEUKOCYTE COUNT [1]: 15.1 x10E3/uL
LYMPHOCYTE [1]: 88%
MEAN CORPUSCULAR HEMOGLOBIN [1]: 23.9 pg
MEAN CORPUSCULAR HEMOGLOBIN CONCENTRATION [1]: 38.03 G/DL
MEAN CORPUSCULAR VOLUME [1]: 62.77 fL
MONOCYTE [1]: 1%
NEUTROPHIL [1]: 10.33%
NUCLEATED RED BLOOD CELLS [1]: 0.33 /100WBC
PLATELET COUNT [1]: 1275.33 x10E3/uL
ALANINE AMINOTRANSFERASE [1]: 49.33 u/L
ALBUMIN [1]: 4.4 G/DL
ALKALINE PHOSPHATASE [1]: 440.67 u/L
ASPARTATE AMINOTRANSFERASE [1]: 85 u/L
BLOOD UREA NITROGEN [1]: 15.33 mg/dL
CARBON DIOXIDE [1]: 22.67 mmol/L
CHLORIDE [1]: 105.67 MEQ/L
CHOLESTEROL [1]: 74.67 mg/dL
CREATINE PHOSPHOKINASE [1]: 232.33 u/L
CREATININE [1]: 0.25 mg/dL
GLUCOSE [1]: 142.33 mg/dL
LACTATE DEHYDROGENASE [1]: 280 u/L
LIPASE [1]: 9.67 u/L
PHOSPHORUS [1]: 13.57 mg/dL
POTASSIUM [1]: 6.78 MEQ/L
SODIUM [1]: 147.27 MEQ/L
TOTAL BILIRUBIN [1]: 0.27 mg/dL
TOTAL PROTEIN [1]: 6.1 G/DL
URIC ACID [1]: 2.1 mg/dL
ABSOLUTE BASOPHIL [2]: 0 CELLS/uL
ABSOLUTE EOSINOPHIL [2]: 48 CELLS/uL
ABSOLUTE LYMPHOCYTE [2]: 14184 CELLS/uL
ABSOLUTE MONOCYTE [2]: 368 CELLS/uL
ABSOLUTE SEGMENTED NEUTROPHIL [2]: 1000 CELLS/uL
BASOPHIL [2]: 0%
EOSINOPHIL [2]: 0.33%
ERYTHROCYTE COUNT [2]: 5.46 x10E6/uL
HEMATOCRIT [2]: 34.3%
HEMOGLOBIN [2]: 13.23 G/DL
LEUKOCYTE COUNT [2]: 15.6 x10E3/uL
LYMPHOCYTE [2]: 90.67%
MEAN CORPUSCULAR HEMOGLOBIN [2]: 24.3 pg
MEAN CORPUSCULAR HEMOGLOBIN CONCENTRATION [2]: 38.57 G/DL
MEAN CORPUSCULAR VOLUME [2]: 62.93 fL
MONOCYTE [2]: 2.33%
NEUTROPHIL [2]: 6.67%
NUCLEATED RED BLOOD CELLS [2]: 0.33 /100WBC
PLATELET COUNT [2]: 1440 x10E3/uL
ALANINE AMINOTRANSFERASE [2]: 44.67 u/L
ALBUMIN [2]: 4.27 G/DL
ALKALINE PHOSPHATASE [2]: 262 u/L
ASPARTATE AMINOTRANSFERASE [2]: 72.33 u/L
BLOOD UREA NITROGEN [2]: 13.67 mg/dL
CARBON DIOXIDE [2]: 25.67 mmol/L
CHLORIDE [2]: 106.33 MEQ/L
CHOLESTEROL [2]: 58.33 mg/dL
CREATINE PHOSPHOKINASE [2]: 186 u/L
CREATININE [2]: 0.19 mg/dL
GLUCOSE [2]: 159 mg/dL
LACTATE DEHYDROGENASE [2]: 76.67 u/L
LIPASE [2]: 11.67 u/L
PHOSPHORUS [2]: 12.87 mg/dL
POTASSIUM [2]: 6.41 MEQ/L
SODIUM [2]: 147.13 MEQ/L
TOTAL BILIRUBIN [2]: 0.17 mg/dL
TOTAL PROTEIN [2]: 5.97 G/DL
URIC ACID [2]: 2.1 mg/dL
ABSOLUTE BASOPHIL [3]: 0 CELLS/uL
ABSOLUTE EOSINOPHIL [3]: 0 CELLS/uL
ABSOLUTE LYMPHOCYTE [3]: 13972.67 CELLS/uL
ABSOLUTE MONOCYTE [3]: 336.33 CELLS/uL
ABSOLUTE SEGMENTED NEUTROPHIL [3]: 1224.33 CELLS/uL
BASOPHIL [3]: 0%
EOSINOPHIL [3]: 0%
ERYTHROCYTE COUNT [3]: 5.83 x10E6/uL
HEMATOCRIT [3]: 38.1%
HEMOGLOBIN [3]: 13.73 G/DL
LEUKOCYTE COUNT [3]: 15.53 x10E3/uL
LYMPHOCYTE [3]: 89.33%
MEAN CORPUSCULAR HEMOGLOBIN [3]: 23.53 pg
MEAN CORPUSCULAR HEMOGLOBIN CONCENTRATION [3]: 36 G/DL
MEAN CORPUSCULAR VOLUME [3]: 65.37 fL
MONOCYTE [3]: 2.33%
NEUTROPHIL [3]: 8.33%
NUCLEATED RED BLOOD CELLS [3]: 0 /100WBC
PLATELET COUNT [3]: 1452.67 x10E3/uL
ALANINE AMINOTRANSFERASE [3]: 48.67 u/L
ALBUMIN [3]: 4.37 G/DL
ALKALINE PHOSPHATASE [3]: 355.67 u/L
ASPARTATE AMINOTRANSFERASE [3]: 77 u/L
BLOOD UREA NITROGEN [3]: 14.33 mg/dL
CARBON DIOXIDE [3]: 25 mmol/L
CHLORIDE [3]: 103.67 MEQ/L
CHOLESTEROL [3]: 77 mg/dL
CREATINE PHOSPHOKINASE [3]: 150 u/L
CREATININE [3]: 0.21 mg/dL
GLUCOSE [3]: 208.33 mg/dL
LACTATE DEHYDROGENASE [3]: 99 u/L
LIPASE [3]: 9.67 u/L
PHOSPHORUS [3]: 13.23 mg/dL
POTASSIUM [3]: 6.13 MEQ/L
SODIUM [3]: 146.97 MEQ/L
TOTAL BILIRUBIN [3]: 0.23 mg/dL
TOTAL PROTEIN [3]: 6.1 G/DL
URIC ACID [3]: 2.37 mg/dL
ABSOLUTE BASOPHIL [4]: 0 CELLS/uL
ABSOLUTE EOSINOPHIL [4]: 34.67 CELLS/uL
ABSOLUTE LYMPHOCYTE [4]: 10550 CELLS/uL
ABSOLUTE MONOCYTE [4]: 260.33 CELLS/uL
ABSOLUTE SEGMENTED NEUTROPHIL [4]: 1188.33 CELLS/uL
BASOPHIL [4]: 0%
EOSINOPHIL [4]: 0.33%
ERYTHROCYTE COUNT [4]: 5.54 x10E6/uL
HEMATOCRIT [4]: 34.03%
HEMOGLOBIN [4]: 12.9 G/DL
LEUKOCYTE COUNT [4]: 12.03 x10E3/uL
LYMPHOCYTE [4]: 88%
MEAN CORPUSCULAR HEMOGLOBIN [4]: 23.27 pg
MEAN CORPUSCULAR HEMOGLOBIN CONCENTRATION [4]: 37.9 G/DL
MEAN CORPUSCULAR VOLUME [4]: 61.4 fL
MONOCYTE [4]: 2%
NEUTROPHIL [4]: 9.67%
NUCLEATED RED BLOOD CELLS [4]: 0 /100WBC
PLATELET COUNT [4]: 1320 x10E3/uL
ALANINE AMINOTRANSFERASE [4]: 44.67 u/L
ALBUMIN [4]: 4.2 G/DL
ALKALINE PHOSPHATASE [4]: 279.67 u/L
ASPARTATE AMINOTRANSFERASE [4]: 85.67 u/L
BLOOD UREA NITROGEN [4]: 17 mg/dL
CARBON DIOXIDE [4]: 25.67 mmol/L
CHLORIDE [4]: 105 MEQ/L
CHOLESTEROL [4]: 70 mg/dL
CREATINE PHOSPHOKINASE [4]: 220 u/L
CREATININE [4]: 0.18 mg/dL
GLUCOSE [4]: 163.33 mg/dL
LACTATE DEHYDROGENASE [4]: 160.67 u/L
LIPASE [4]: 9.33 u/L
PHOSPHORUS [4]: 12.57 mg/dL
POTASSIUM [4]: 6.4 MEQ/L
SODIUM [4]: 146.63 MEQ/L
TOTAL BILIRUBIN [4]: 0.2 mg/dL
TOTAL PROTEIN [4]: 5.87 G/DL
URIC ACID [4]: 2.37 mg/dL
